{
  "source": "paper PMC12203862",
  "about": "“BroadAMP-GPT: AI-Driven generation of broad-spectrum antimicrobial peptides for combating multidrug-resistant ESKAPE pathogens” (Gut Microbes, 2025)",
  "key": {"[1]": {"system": "S. aureus ATCC 29213", "test": "microbe, parasite or virus in culture", "assay_type": "cell-based", "conditions": "ATCC 29213"}, "[2]": {"system": "A. baumannii 7979", "test": "microbe, parasite or virus in culture", "assay_type": "cell-based", "conditions": "7979", "experimental": "(§1) Bacterial strains and growth conditions: All Gram-negative and Gram-positive bacterial strains (Supplementary Table S8) were cultured in Luria-Bertani (LB) or trypticase soy broth (TSB) agar plates, respectively, and incubated overnight at 37 °C unless specifically indicated. A single colony of the tested bacterial strains was inoculated into medium broth with shaking at 220 rpm for further experiments.\n(§2) Minimal inhibitory concentrations: Antimicrobial susceptibility testing was performed by broth microdilution method for AMPs against Gram-positive and Gram-negative pathogens above mentioned, following the methods of document CLSI M100-ED34.[43] The MICs were defined as the lowest concentrations that inhibit visible growth of the tested bacteria. E. coli ATCC 25,922 and S. aureus ATCC 29,213 were served as quality controls."}, "[3]": {"system": "A. baumannii AB11", "test": "microbe, parasite or virus in culture", "assay_type": "cell-based", "conditions": "AB11", "experimental": "as §1, §2"}, "[4]": {"system": "E. coli ATCC 25922", "test": "microbe, parasite or virus in culture", "assay_type": "cell-based", "conditions": "ATCC 25922", "experimental": "as §1, §2"}, "[5]": {"system": "E. faecalis ES01", "test": "microbe, parasite or virus in culture", "assay_type": "cell-based", "conditions": "ES01", "experimental": "as §1, §2"}, "[6]": {"system": "E. faecalis J2", "test": "microbe, parasite or virus in culture", "assay_type": "cell-based", "conditions": "J2", "experimental": "as §1, §2"}, "[7]": {"system": "E. faecalis JH2-2", "test": "microbe, parasite or virus in culture", "assay_type": "cell-based", "conditions": "JH2-2", "experimental": "as §1, §2"}, "[8]": {"system": "E. faecium HFY01", "test": "microbe, parasite or virus in culture", "assay_type": "cell-based", "conditions": "HFY01", "experimental": "as §1, §2"}, "[9]": {"system": "E. faecium MC38", "test": "microbe, parasite or virus in culture", "assay_type": "cell-based", "conditions": "MC38", "experimental": "as §1, §2"}, "[10]": {"system": "E. faecium QF31", "test": "microbe, parasite or virus in culture", "assay_type": "cell-based", "conditions": "QF31", "experimental": "as §1, §2"}, "[11]": {"system": "K. pneumoniae 9-1", "test": "microbe, parasite or virus in culture", "assay_type": "cell-based", "conditions": "9-1", "experimental": "as §1, §2"}, "[12]": {"system": "P. aeruginosa PA14", "test": "microbe, parasite or virus in culture", "assay_type": "cell-based", "conditions": "PA14", "experimental": "as §1, §2"}, "[13]": {"system": "S. agalactiae DL03", "test": "microbe, parasite or virus in culture", "assay_type": "cell-based", "conditions": "DL03", "experimental": "as §1, §2"}, "[14]": {"system": "S. aureus M147-2", "test": "microbe, parasite or virus in culture", "assay_type": "cell-based", "conditions": "M147-2", "experimental": "as §1, §2"}, "[15]": {"system": "S. aureus M92-1", "test": "microbe, parasite or virus in culture", "assay_type": "cell-based", "conditions": "M92-1", "experimental": "as §1, §2"}, "[16]": {"system": "S. aureus YZSA-15", "test": "microbe, parasite or virus in culture", "assay_type": "cell-based", "conditions": "YZSA-15", "experimental": "as §1, §2"}, "[17]": {"system": "S. aureus YZSA-21", "test": "microbe, parasite or virus in culture", "assay_type": "cell-based", "conditions": "YZSA-21", "experimental": "as §1, §2"}, "[18]": {"system": "S. aureus YZSA-24", "test": "microbe, parasite or virus in culture", "assay_type": "cell-based", "conditions": "YZSA-24", "experimental": "as §1, §2"}, "[19]": {"system": "S. pyogenes DL02", "test": "microbe, parasite or virus in culture", "assay_type": "cell-based", "conditions": "DL02", "experimental": "as §1, §2"}, "[20]": {"system": "S. suis SH0918", "test": "microbe, parasite or virus in culture", "assay_type": "cell-based", "experimental": "as §1, §2"}, "[21]": {"system": "S. suis P1/7", "test": "microbe, parasite or virus in culture", "experimental": "as §1\nas §2, with “bacteria.” for “bacteria. E. coli ATCC 25,922 and S. aureus ATCC 29,213 were served as quality controls.”"}, "[22]": {"system": "S. enteritis S1", "test": "organism not typed", "assay_type": "cell-based", "experimental": "as §1, §2"}, "[23]": {"system": "S. aureus clinical isolates (n = 40)", "assay_type": "cell-based", "experimental": "as §1, §2"}, "[24]": {"system": "four Gram-positive and five Gram-negative bacteria, including ESKAPE pathogens", "assay_type": "cell-based", "experimental": "as §1, §2"}, "[25]": {"system": "Caco-2", "test": "Cytotoxicity, CCK-8", "assay_type": "cell-based, human", "experimental": "(§3) The cytotoxicity of selected AMPs to human laryngeal carcinoma epithelial cell (HEp-2) and colorectal adenocarcinoma cell (Caco-2) lines was evaluated using the CCK-8 method as previously described.[55] The cells were cultured in high-glucose dulbecco’s modified eagle medium (DMEM) supplemented with 10% fetal bovine serum (FBS) and 1% penicillin-streptomycin. Cells were inoculated in 96-well sterile microtiter plate at 5000 cells/100 μL. After cultured (37℃, 5%CO2) for 24 h, cells were treated with AMPs at concentrations ranging from 8 to 128 μg/mL for another 48 h. Afterward, the culture medium was replaced by fresh DMEM medium containing 10% CCK-8 and incubated for 1 h. The absorbance of the solution was measured at 450 nm by a microplate reader. Cell viability was calculated as: % cell viability = [(Abssample - Absblank)/(Absnegative - Absblank)]×100%. Each experiment was carried out with three replicates."}, "[26]": {"system": "HEp-2", "test": "Cytotoxicity, CCK-8", "assay_type": "cell-based, human", "experimental": "as §3"}, "[27]": {"system": "mouse red blood cells", "test": "Haemolysis assay", "assay_type": "cell-based", "conditions": "MIC values against S. aureus ATCC 29213", "experimental": "Red blood cells (RBCs) from Kunming mice were used to evaluate the hemolytic toxicity of the selected AMPs. Fresh red blood cells were collected from mice and washed until the supernatant was completely cleared. Added 19-fold volume of PBS to prepare 2% RBC suspension. […] Afterward, the mixture was centrifuged at 1500 rpm for 10 min. Then transferred 30 µL supernatant to 96-well plate containing 70 µL PBS. The absorbance of the sample was measured at 450 nm by a microplate reader. PBS and 2% Triton X-100 was used as negative and positive control, respectively. The experiment was performed in triplicate and the hemolysis activity was calculated by the formula hemolysis = [(Absorbancesample- AbsorbancePBS)/(AbsorbanceTriton x-100-AbsorbancePBS)]×100%."}},
  "note": "Residues, ends and D or L forms follow the SMILES beside them.",
  "data": [
    {"compound": "CC(C)C[C@H](NC(=O)[C@H](CCCCN)NC(=O)[C@H](Cc1c[nH]c2ccccc12)NC(=O)[C@H](CC(C)C)NC(=O)[C@H](CC(C)C)NC(=O)[C@H](CCCCN)NC(=O)[C@H](Cc1c[nH]c2ccccc12)NC(=O)[C@H](Cc1c[nH]c2ccccc12)NC(=O)[C@H](CCCCN)NC(=O)[C@H](CCCCN)NC(=O)[C@H](C)N)C(=O)N[C@@H](Cc1c[nH]c2ccccc12)C(=O)N[C@@H](CCCCN)C(=O)N[C@@H](CCCCN)C(=O)N[C@@H](C)C(=O)N[C@@H](CCCCN)C(=O)O", "note": "[AMP_S4] (H-AKKWWKLLWKLWKKAK-OH)", "values": [
      {"measurement": "MIC", "setting": "[1]", "value": 4, "unit": "µg/mL"},
      {"measurement": "MIC", "setting": "[2]", "value": 4, "unit": "µg/mL"},
      {"measurement": "MIC", "setting": "[3]", "value": 2, "unit": "µg/mL"},
      {"measurement": "MIC", "setting": "[4]", "value": 8, "unit": "µg/mL"},
      {"measurement": "MIC", "setting": "[5]", "value": 4, "unit": "µg/mL"},
      {"measurement": "MIC", "setting": "[6]", "value": 8, "unit": "µg/mL"},
      {"measurement": "MIC", "setting": "[7]", "value": 8, "unit": "µg/mL"},
      {"measurement": "MIC", "setting": "[8]", "value": 4, "unit": "µg/mL"},
      {"measurement": "MIC", "setting": "[9]", "value": 4, "unit": "µg/mL"},
      {"measurement": "MIC", "setting": "[10]", "value": 4, "unit": "µg/mL"},
      {"measurement": "MIC", "setting": "[11]", "value": 16, "unit": "µg/mL"},
      {"measurement": "MIC", "setting": "[12]", "value": 8, "unit": "µg/mL"},
      {"measurement": "MIC", "setting": "[13]", "value": 4, "unit": "µg/mL"},
      {"measurement": "MIC", "setting": "[14]", "value": 4, "unit": "µg/mL"},
      {"measurement": "MIC", "setting": "[15]", "value": 4, "unit": "µg/mL"},
      {"measurement": "MIC", "setting": "[16]", "value": 4, "unit": "µg/mL"},
      {"measurement": "MIC", "setting": "[17]", "value": 4, "unit": "µg/mL"},
      {"measurement": "MIC", "setting": "[18]", "value": 16, "unit": "µg/mL"},
      {"measurement": "MIC", "setting": "[19]", "value": 4, "unit": "µg/mL"},
      {"measurement": "MIC", "setting": "[20]", "value": 4, "unit": "µg/mL"},
      {"measurement": "MIC", "setting": "[21]", "value": 4, "unit": "µg/mL"},
      {"measurement": "MIC", "setting": "[22]", "value": 16, "unit": "µg/mL"},
      {"measurement": "MICs, range over clinical isolates", "setting": "[23]", "value": "4 to 32", "unit": "µg/mL"},
      {"measurement": "MIC values, range", "setting": "[24]", "value": "2 to 16", "unit": "µg/mL"},
      {"measurement": "MICs, range over panel", "setting": "[24]", "value": "2 to 16", "unit": "µg/mL"},
      {"measurement": "CC50", "setting": "[25]; 48 h", "value": 15.82, "unit": "µg/mL"},
      {"measurement": "CC50/MIC", "setting": "[25]; Caco-2, MIC values against S. aureus ATCC 29213", "value": 3.96},
      {"measurement": "CC50", "setting": "[26]; 48 h", "value": 35.16, "unit": "µg/mL"},
      {"measurement": "CC50/MIC", "setting": "[26]; HEp-2, MIC values against S. aureus ATCC 29213", "value": 8.8},
      {"measurement": "HC50/MIC", "setting": "[27]", "value": 4.56}
    ]}
  ]
}
